Experimental data as given in patent US5552421A, “Leukotriene biosynthesis inhibitors” (Boehringer Ingelheim Pharmaceuticals, Inc., priority 1995, dated 1996).

Columns and labels:
[1] = system: leukotriene component of antigen-induced bronchoconstriction; assay: Antigen-Induced Bronchoconstriction in Guinea Pigs; assay type: in vivo, guinea pig (male Hartley); conditions: aerosol, vs placebo treated controls
From the text: Antigen-Induced Bronchoconstriction in Guinea Pigs
This model measures the ability of a compound to block the leukotriene component of antigen-induced bronchoconstriction. Male Hartley guinea pigs are actively sensitized to ovalbumin, pretreated with mepyramine and indomethacin (to block the histamine and cyclooxygenase metabolite components respectively), and test compound (by aerosol administration). The guinea pigs are challenged with antigen (inhaled ovalbumin). Pulmonary function is measured by oscillatory mechanics as described by W. W. Wolyniec et al. (Agents and Actions 1991, 34, 1/2, 73). Results are expressed as percent inhibition of bronchoconstriction (resistance) in the test compound treated guinea pigs compared to placebo treated controls.
*Refers to amount of test compound inhaled by gunea pig. Compounds
administered by aerosolized freon/ethanol solution from metered dose

[2] = system: LTB4 biosynthesis in human polymorphonuclear leukocytes (PMNs); assay: Inhibition of LTB4 biosynthesis in human polymorphonuclear leukocytes (PMNs); assay type: cell-based; conditions: Homo sapiens, Leukocyte, values with <: see footnote d, Table 1
Procedure: Inhibition of LTB4, biosynthesis in human polymorphonuclear leukocytes (PMNs)
The inhibition of leukotriene biosynthesis is measured by determining whether and to what extent test compounds can inhibit LTB4 production from endogenous arachidonic acid in human peripheral blood leukocytes.
To 48-well tissue culture plates was added a solution of the test compound followed by addition of human polymorphonuclear leukocytes isolated from peripheral blood at a density of 1.5×10^6 cells/well. Culture plates were preincubated for fifteen minutes with shaking at 28° C. Cells were stimulated with calcium ionophore A23187 at a final concentration of 2.5 μM for an additional ten minutes. The reaction was terminated by the addition of an EGTA solution (10 mM final concentration)followed by centrifugation at 1500 rpm at 10° C. Supernatants were stored at -70° C. LTB4 levels were determined by RIA using a commercially available kit. Nonlinear regression analysis was used to calculate. IC50 values.
The following tables show % inhibition of LTB4 biosynthesis by compounds of the invention at test concentrations indicated, with the determined IC50 shown in μM.

[3] = Table 9, Miscellaneous Heterocycle
[4] = Table 14, Miscellaneous Compounds

SMILES: c1ccc(C(CC2CCCCC2)Nc2nc3ccccc3o2)cc1 (stereo not shown) [Compound 51, 2-(2-Cyclohexyl-1-phenyl]ethylaminobenzoxazole]
- % Inhibition of bronchoconstriction (resistance) ([1]; 274 micrograms inhaled): 86%
- IC50 ([2]; Table 3, Phenyl): 0.0069 µM

SMILES: COc1ccc(C(CC2CCCCC2)Nc2nc3ccccc3o2)cc1 (stereo not shown) [Compound 56]
- % Inhibition of bronchoconstriction (resistance) ([1]; 95 micrograms inhaled): 43%
- IC50 ([2]; Table 3, Phenyl): 0.55 µM

SMILES: Cc1ccc2oc(NC(CC3CCCCC3)c3ccccn3)nc2c1 (stereo not shown) [Compound 81]
- % Inhibition of bronchoconstriction (resistance) ([1]; 2.8 micrograms inhaled): 61%
- % Inhibition of bronchoconstriction (resistance) ([1]; 28 micrograms inhaled): 64%
- % Inhibition of bronchoconstriction (resistance) ([1]; 308 micrograms inhaled): 64%
- IC50 ([2]; Table 4, Pyridyl): 0.0031 µM

SMILES: CC(C)c1ccc2oc(N[C@H](CNS(=O)(=O)N(C)C)Cc3ccccc3)nc2c1 [Compound 152]
- IC50 ([2]; Table 8, Miscellaneous Acyclic): < 0.1 µM

SMILES: CC(C)c1ccc2oc(N[C@H](CNC(N)=O)Cc3ccccc3)nc2c1 [Compound 153]
- IC50 ([2]; Table 8, Miscellaneous Acyclic): < 0.3 µM

SMILES: CNC(=O)OC[C@H](Cc1ccccc1)Nc1nc2cc(C(C)C)ccc2o1 [Compound 154]
- IC50 ([2]; Table 8, Miscellaneous Acyclic): 0.063 µM

SMILES: Fc1ccc(CC(Nc2nc3cc(Cl)ccc3o2)c2ncc[nH]2)cc1 (stereo not shown) [Compound 155]
- IC50 [2, 3]: 0.29 µM

SMILES: CC(C)c1ccc2oc(NC(Cc3ccc(F)cc3)c3ncc[nH]3)nc2c1 (stereo not shown) [Compound 156]
- IC50 [2, 3]: 0.09 µM

SMILES: Cc1nc(CC(Nc2nc3cc(C(C)C)ccc3o2)c2ncc[nH]2)cs1 (stereo not shown) [Compound 157]
- IC50 [2, 3]: < 1 µM

SMILES: CC(C)c1ccc2oc(NC(Cc3cccc(Cl)c3)c3ncc[nH]3)nc2c1 (stereo not shown) [Compound 158]
- IC50 [2, 3]: < 0.03 µM

SMILES: CC(C)c1ccc2oc(NC(Cc3cccc(Cl)c3)c3nccs3)nc2c1 (stereo not shown) [Compound 159]
- IC50 [2, 3]: < 0.1 µM

SMILES: Cc1csc(C(Cc2cccc(Cl)c2)Nc2nc3cc(C(C)C)ccc3o2)n1 (stereo not shown) [Compound 160]
- IC50 [2, 3]: < 0.03 µM

SMILES: CC(C)c1ccc2oc(NC(Cc3ccccc3)c3cn[nH]c3)nc2c1 (stereo not shown) [Compound 161]
- IC50 [2, 3]: < 0.1 µM

SMILES: COC(=O)[C@H](CC1CCCCC1)Nc1nc2ncccc2o1 [Compound 162]
- IC50 ([2]; Table 10, Oxazolopyridines): 0.21 µM

SMILES: c1ccc(C(CC2CCCCC2)Nc2nc3ncccc3o2)cc1 (stereo not shown) [Compound 163]
- IC50 ([2]; Table 10, Oxazolopyridines): 0.078 µM

SMILES: Cc1ccc2oc(NC(CC3CCCCC3)c3ccccc3)nc2n1 (stereo not shown) [Compound 164]
- IC50 ([2]; Table 10, Oxazolopyridines): 0.028 µM

SMILES: Cc1ccc2oc(NC(CC3CCCCC3)c3ccccn3)nc2n1 (stereo not shown) [Compound 165]
- % Inhibition of bronchoconstriction (resistance) ([1]; 5.6 micrograms inhaled): 0%
- % Inhibition of bronchoconstriction (resistance) ([1]; 28 micrograms inhaled): 64%
- % Inhibition of bronchoconstriction (resistance) ([1]; 274 micrograms inhaled): 84%
- IC50 ([2]; Table 10, Oxazolopyridines): 0.026 µM

SMILES: Cc1ccc2oc(NC(CC3CCCCC3)c3cccnc3)nc2n1 (stereo not shown) [Compound 168]
- IC50 ([2]; Table 10, Oxazolopyridines): 0.3 µM

SMILES: c1ccc(C(CC2CCCCC2)Nc2nc3cccnc3o2)cc1 (stereo not shown) [Compound 170]
- IC50 ([2]; Table 10, Oxazolopyridines): 0.021 µM

SMILES: c1ccc(C(CC2CCCCC2)Nc2nc3cccnc3s2)cc1 (stereo not shown) [Compound 172, 2-[(2-Cyclohexyl-1-phenylethyl)amino]thiazolo[5,4-b]pyridine]
- IC50 ([2]; Table 11, Thiazolopyridines): 0.027 µM

SMILES: c1cncc(C(CC2CCCCC2)Nc2nc3cccnc3s2)c1 (stereo not shown) [Compound 173]
- IC50 ([2]; Table 11, Thiazolopyridines): 0.17 µM

SMILES: c1ccc(C(CC2CCCCC2)Nc2nc3cccnc3s2)nc1 (stereo not shown) [Compound 174]
- IC50 ([2]; Table 11, Thiazolopyridines): 0.027 µM

SMILES: Cc1cnc2nc(NC(CC3CCCCC3)c3ccccn3)sc2c1 (stereo not shown) [Compound 184]
- IC50 ([2]; Table 11, Thiazolopyridines): 0.031 µM

SMILES: Cc1nc2nc(NC(CC3CCCCC3)c3ccccn3)sc2cc1Br (stereo not shown) [Compound 185]
- IC50 ([2]; Table 11, Thiazolopyridines): 0.0065 µM

SMILES: Cc1nc2nc(NC(CC3CCCCC3)c3cccnc3)sc2cc1Br (stereo not shown) [Compound 186]
- IC50 ([2]; Table 11, Thiazolopyridines): 0.021 µM

SMILES: Cc1ccc2sc(NC(CC3CCCCC3)c3ccccn3)nc2n1 (stereo not shown) [Compound 187]
- IC50 ([2]; Table 11, Thiazolopyridines): 0.013 µM

SMILES: Clc1cnc2nc(NC(CC3CCCCC3)c3ccccn3)sc2c1 (stereo not shown) [Compound 188]
- IC50 ([2]; Table 11, Thiazolopyridines): 0.0039 µM

SMILES: Fc1ccc(CC(Nc2nc3ncc(Cl)cc3s2)c2ccccn2)cc1 (stereo not shown) [Compound 189]
- IC50 ([2]; Table 11, Thiazolopyridines): 0.028 µM

SMILES: Cc1cnc2nc(NC(CC3CCCCC3)c3ccccc3)sc2c1 (stereo not shown) [Compound 191]
- IC50 ([2]; Table 11, Thiazolopyridines): < 1 µM

SMILES: Cc1cnc2nc(NC(Cc3ccc(F)cc3)c3ccccn3)sc2c1 (stereo not shown) [Compound 192]
- IC50 ([2]; Table 11, Thiazolopyridines): < 0.3 µM

SMILES: COC(=O)[C@H](Cc1cn(C)cn1)Nc1nc2cc(C(C)C)ccc2o1 [Compound 201]
- IC50 [2, 4]: < 1 µM

SMILES: CC(C)c1ccc2oc(NC(Cc3cccc(Cl)c3)c3nccn3C)nc2c1 (stereo not shown) [Compound 202]
- IC50 [2, 4]: < 0.1 µM
